Data reported in ChEMBL document CHEMBL1914426, “Phospshoinositide 3-kinase (PI3K)/mammalian target of rapamycin (mTOR) dual inhibitors: discovery and structure-activity relationships of a series of quinoline and quinoxaline derivatives” (J Med Chem, 2011).

Columns and labels:
[1] = target: T1, Phosphatidylinositol 4,5-bisphosphate 3-kinase catalytic subunit alpha isoform (Homo sapiens, UniProt P42336)
[2] = target: T1, Phosphatidylinositol 4,5-bisphosphate 3-kinase catalytic subunit alpha isoform; remark: listed apart in the source
[3] = target: Phosphatidylinositol 4,5-bisphosphate 3-kinase catalytic subunit gamma isoform (Homo sapiens, UniProt P48736); design: species or system Sf9
[4] = target: Phosphatidylinositol 4,5-bisphosphate 3-kinase catalytic subunit beta isoform (Homo sapiens, UniProt P42338)
[5] = target: T2, Phosphatidylinositol 4,5-bisphosphate 3-kinase catalytic subunit delta isoform (Homo sapiens, UniProt O00329)
T2 sequence (O00329 whole entry): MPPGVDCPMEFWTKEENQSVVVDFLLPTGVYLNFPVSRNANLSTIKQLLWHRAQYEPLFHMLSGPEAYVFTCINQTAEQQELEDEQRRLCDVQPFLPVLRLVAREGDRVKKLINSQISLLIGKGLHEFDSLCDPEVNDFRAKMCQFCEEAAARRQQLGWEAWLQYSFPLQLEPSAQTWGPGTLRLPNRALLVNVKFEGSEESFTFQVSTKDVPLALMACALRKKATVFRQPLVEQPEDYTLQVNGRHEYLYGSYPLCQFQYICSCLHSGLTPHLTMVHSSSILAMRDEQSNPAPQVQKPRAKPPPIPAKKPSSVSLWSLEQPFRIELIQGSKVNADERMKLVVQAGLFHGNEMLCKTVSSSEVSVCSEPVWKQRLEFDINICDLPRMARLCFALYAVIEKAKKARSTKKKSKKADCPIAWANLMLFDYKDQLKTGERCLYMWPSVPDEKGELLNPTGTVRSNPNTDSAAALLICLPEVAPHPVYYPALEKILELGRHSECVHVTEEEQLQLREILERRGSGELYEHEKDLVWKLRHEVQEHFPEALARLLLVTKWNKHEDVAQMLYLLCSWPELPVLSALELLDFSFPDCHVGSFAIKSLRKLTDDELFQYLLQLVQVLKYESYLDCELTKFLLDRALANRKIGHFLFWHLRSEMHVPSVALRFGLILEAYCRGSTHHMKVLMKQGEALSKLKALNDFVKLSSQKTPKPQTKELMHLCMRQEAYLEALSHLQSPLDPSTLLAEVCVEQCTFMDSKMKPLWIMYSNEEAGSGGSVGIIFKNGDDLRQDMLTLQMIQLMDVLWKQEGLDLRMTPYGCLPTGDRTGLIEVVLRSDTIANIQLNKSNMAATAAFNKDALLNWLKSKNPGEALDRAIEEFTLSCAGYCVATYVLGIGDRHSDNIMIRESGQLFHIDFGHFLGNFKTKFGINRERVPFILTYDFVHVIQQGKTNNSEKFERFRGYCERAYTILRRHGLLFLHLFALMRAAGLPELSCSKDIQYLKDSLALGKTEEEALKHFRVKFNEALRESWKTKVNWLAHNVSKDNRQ

Rattus norvegicus = species: Rattus norvegicus; settings: in vivo, iv, 1 mg/kg
Description: Hepatic blood flow in Sprague-Dawley rat 1 mg/kg, iv

in vitro [6] = settings: human, liver microsomes
Description: Clearance in human liver microsomes assessed as compound remaining at 1 uM after 30 mins

in vitro [7] = settings: rat, liver microsomes
Description: Clearance in rat liver microsomes assessed as compound remaining at 1 uM after 30 mins

[8] = Oral bioavailability in Sprague-Dawley rat at 1 mg/kg; format: ADME, organism-based; settings: in vivo
[9] = AUC in Sprague-Dawley rat at 1 mg/kg, po; format: ADME, organism-based; design: dose 1 mg/kg, route oral; settings: plasma
[10] = target: Phosphatidylinositol 3-kinase catalytic subunit type 3 (Homo sapiens, UniProt Q8NEB9)
Description: Inhibition of human VPS34 assessed as ADP formation using ATP by fluorescence-based immunoassay

in vivo [11] = settings: Sprague-Dawley, rat, iv, 1 mg/kg
Description: Clearance in Sprague-Dawley rat at 1 mg/kg, iv

in vivo [12] = settings: Sprague-Dawley, rat, iv, 1 mg/kg; remark: listed apart in the source
Description: Volume of distribution at steady-state in Sprague-Dawley rat at 1 mg/kg, iv

in vivo [13] = settings: Sprague-Dawley, rat, iv, 1 mg/kg; remark: listed apart in the source
Description: Mean residence time in Sprague-Dawley rat at 1 mg/kg, iv

in vivo [14] = settings: nude CD1, mouse, plasma, po, 0.3 mg/kg
Description: Plasma concentration in nude CD1 mouse at 0.3 mg/kg, po measured after 3 hrs

in vivo [15] = settings: nude CD1, mouse, plasma, po, 1 mg/kg
Description: Plasma concentration in nude CD1 mouse at 1 mg/kg, po measured after 3 hrs

in vivo [16] = settings: nude CD1, mouse, plasma, po, 3 mg/kg
Description: Plasma concentration in nude CD1 mouse at 3 mg/kg, po measured after 3 hrs

Mus musculus [17] = species: Mus musculus; test: animal or person; settings: CD1, po, 3 h, read-out: INH
Mus musculus [18] = species: Mus musculus; test: animal or person; settings: CD1, po, 3 h, read-out: INH; remark: listed apart in the source
Mus musculus [19] = species: Mus musculus; test: animal or person; settings: CD1, po, 3 h, read-out: INH; remark: listed apart in the source
[20] = target: Serine/threonine-protein kinase mTOR (Homo sapiens, UniProt P42345)
Description: Inhibition of mTOR using GFP-tagged 4E-BP1 after 1 hr by spectrophotometric analysis

Mus musculus [21] = test: Inhibition of PI3K-induced Akt phosphorylation at Ser 473 in HGF-stimulated nude CD1 mouse at 0.3 mg/kg, po measured after 4 hrs by quantitative electrochemiluminescence immunoassay; format: functional; settings: CD1, 4 h
Mus musculus [22] = test: Inhibition of PI3K-induced Akt phosphorylation at Ser 473 in HGF-stimulated nude CD1 mouse at 1 mg/kg, po measured after 4 hrs by quantitative electrochemiluminescence immunoassay; format: functional; settings: CD1, 4 h
Mus musculus [23] = test: Inhibition of PI3K-induced Akt phosphorylation at Ser 473 in HGF-stimulated nude CD1 mouse at 3 mg/kg, po measured after 4 hrs by quantitative electrochemiluminescence immunoassay; format: functional; settings: CD1, 4 h
[24] = Plasma concentration in nude CD1 mouse at 0.3 mg/kg, po measured after 4 hrs; format: ADME, organism-based; design: dose 0.3 mg/kg, route oral
[25] = Plasma concentration in nude CD1 mouse at 1 mg/kg, po measured after 4 hrs; format: ADME, organism-based; design: dose 1 mg/kg, route oral
[26] = Plasma concentration in nude CD1 mouse at 3 mg/kg, po measured after 4 hrs; format: ADME, organism-based; design: dose 3 mg/kg, route oral
[27] = target: DNA-dependent protein kinase catalytic subunit (Homo sapiens, UniProt P78527)
Description: Inhibition of DNA-PK using fluorescein-p53 peptide as substrate after 1 hr by TR-FRET enzyme assay

T1 sequence (P42336 whole entry, canonical isoform): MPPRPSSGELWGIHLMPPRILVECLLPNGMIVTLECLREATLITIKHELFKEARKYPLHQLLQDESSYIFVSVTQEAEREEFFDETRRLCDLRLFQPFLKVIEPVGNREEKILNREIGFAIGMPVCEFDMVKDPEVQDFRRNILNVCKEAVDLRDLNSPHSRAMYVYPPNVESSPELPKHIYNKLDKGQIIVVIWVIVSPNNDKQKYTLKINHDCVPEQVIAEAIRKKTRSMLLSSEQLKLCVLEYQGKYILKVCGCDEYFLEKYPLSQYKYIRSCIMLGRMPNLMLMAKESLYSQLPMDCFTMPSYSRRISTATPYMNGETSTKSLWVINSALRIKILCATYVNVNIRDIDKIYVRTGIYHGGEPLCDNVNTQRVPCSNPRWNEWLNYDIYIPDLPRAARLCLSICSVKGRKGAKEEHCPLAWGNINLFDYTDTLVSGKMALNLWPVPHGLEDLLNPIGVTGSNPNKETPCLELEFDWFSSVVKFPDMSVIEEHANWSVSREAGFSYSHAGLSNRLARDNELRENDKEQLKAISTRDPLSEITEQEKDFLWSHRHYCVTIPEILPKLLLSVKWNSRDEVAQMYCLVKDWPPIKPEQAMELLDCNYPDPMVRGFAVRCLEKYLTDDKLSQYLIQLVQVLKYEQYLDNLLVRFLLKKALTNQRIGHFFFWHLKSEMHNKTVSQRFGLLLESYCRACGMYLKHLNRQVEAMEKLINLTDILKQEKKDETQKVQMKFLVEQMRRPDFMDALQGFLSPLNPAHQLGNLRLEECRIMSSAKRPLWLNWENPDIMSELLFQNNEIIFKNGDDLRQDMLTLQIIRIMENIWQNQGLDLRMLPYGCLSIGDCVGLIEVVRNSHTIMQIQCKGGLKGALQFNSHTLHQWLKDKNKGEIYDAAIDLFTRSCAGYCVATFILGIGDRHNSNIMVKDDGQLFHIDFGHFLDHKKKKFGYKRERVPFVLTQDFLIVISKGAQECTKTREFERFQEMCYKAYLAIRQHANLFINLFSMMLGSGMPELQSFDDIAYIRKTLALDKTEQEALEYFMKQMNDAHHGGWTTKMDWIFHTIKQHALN
Phosphatidylinositol 3-kinase catalytic subunit type 3, sequence (Q8NEB9 whole entry): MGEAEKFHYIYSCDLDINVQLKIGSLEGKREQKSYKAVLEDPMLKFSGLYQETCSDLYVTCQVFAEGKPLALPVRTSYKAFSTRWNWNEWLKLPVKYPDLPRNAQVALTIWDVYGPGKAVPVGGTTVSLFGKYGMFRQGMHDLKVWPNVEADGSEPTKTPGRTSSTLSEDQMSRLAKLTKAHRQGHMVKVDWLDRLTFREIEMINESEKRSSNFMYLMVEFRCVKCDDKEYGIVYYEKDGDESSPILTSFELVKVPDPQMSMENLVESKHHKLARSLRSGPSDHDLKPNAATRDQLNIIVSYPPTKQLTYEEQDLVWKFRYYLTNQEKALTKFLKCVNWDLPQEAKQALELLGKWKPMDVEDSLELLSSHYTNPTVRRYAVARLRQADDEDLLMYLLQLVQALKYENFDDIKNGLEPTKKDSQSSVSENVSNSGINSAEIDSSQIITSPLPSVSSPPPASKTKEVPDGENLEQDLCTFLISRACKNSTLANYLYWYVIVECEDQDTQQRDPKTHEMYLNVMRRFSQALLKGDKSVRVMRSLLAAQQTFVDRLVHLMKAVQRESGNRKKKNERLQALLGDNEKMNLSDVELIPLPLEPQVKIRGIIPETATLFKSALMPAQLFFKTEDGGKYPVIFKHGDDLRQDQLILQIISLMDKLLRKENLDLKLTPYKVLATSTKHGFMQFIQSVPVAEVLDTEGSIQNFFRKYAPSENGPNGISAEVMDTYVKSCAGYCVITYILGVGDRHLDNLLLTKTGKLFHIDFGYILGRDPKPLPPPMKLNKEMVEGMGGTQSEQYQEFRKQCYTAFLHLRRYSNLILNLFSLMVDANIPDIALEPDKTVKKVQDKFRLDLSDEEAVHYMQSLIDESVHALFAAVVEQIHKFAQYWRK
Phosphatidylinositol 4,5-bisphosphate 3-kinase catalytic subunit gamma isoform, sequence (P48736 whole entry, canonical isoform): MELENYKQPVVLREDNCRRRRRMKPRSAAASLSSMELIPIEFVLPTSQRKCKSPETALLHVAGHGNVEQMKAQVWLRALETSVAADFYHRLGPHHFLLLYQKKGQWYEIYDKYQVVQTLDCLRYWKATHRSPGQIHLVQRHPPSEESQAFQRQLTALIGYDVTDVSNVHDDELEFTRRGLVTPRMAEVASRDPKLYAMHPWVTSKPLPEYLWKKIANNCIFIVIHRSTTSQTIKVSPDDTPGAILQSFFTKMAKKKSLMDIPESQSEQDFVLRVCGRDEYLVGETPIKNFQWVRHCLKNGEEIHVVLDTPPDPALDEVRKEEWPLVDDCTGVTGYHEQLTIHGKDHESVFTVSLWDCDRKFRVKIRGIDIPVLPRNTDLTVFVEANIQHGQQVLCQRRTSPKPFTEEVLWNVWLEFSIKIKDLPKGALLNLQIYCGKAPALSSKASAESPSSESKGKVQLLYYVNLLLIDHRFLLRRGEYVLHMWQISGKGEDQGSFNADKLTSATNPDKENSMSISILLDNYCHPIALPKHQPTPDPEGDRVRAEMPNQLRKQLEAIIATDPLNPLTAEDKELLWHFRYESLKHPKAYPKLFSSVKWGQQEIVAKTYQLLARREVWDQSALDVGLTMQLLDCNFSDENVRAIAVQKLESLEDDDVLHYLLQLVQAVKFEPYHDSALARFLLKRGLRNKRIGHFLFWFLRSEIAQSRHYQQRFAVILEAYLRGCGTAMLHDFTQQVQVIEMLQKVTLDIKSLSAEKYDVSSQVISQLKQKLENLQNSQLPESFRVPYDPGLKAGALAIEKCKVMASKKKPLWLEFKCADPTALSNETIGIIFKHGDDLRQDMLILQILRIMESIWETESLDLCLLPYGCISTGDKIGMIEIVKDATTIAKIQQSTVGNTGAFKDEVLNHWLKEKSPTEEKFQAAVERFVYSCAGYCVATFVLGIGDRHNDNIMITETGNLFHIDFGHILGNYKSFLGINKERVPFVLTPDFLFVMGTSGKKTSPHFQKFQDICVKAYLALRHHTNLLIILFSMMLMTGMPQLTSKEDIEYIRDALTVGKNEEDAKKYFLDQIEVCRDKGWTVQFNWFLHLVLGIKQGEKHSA
Phosphatidylinositol 4,5-bisphosphate 3-kinase catalytic subunit beta isoform, sequence (P42338 whole entry, canonical isoform): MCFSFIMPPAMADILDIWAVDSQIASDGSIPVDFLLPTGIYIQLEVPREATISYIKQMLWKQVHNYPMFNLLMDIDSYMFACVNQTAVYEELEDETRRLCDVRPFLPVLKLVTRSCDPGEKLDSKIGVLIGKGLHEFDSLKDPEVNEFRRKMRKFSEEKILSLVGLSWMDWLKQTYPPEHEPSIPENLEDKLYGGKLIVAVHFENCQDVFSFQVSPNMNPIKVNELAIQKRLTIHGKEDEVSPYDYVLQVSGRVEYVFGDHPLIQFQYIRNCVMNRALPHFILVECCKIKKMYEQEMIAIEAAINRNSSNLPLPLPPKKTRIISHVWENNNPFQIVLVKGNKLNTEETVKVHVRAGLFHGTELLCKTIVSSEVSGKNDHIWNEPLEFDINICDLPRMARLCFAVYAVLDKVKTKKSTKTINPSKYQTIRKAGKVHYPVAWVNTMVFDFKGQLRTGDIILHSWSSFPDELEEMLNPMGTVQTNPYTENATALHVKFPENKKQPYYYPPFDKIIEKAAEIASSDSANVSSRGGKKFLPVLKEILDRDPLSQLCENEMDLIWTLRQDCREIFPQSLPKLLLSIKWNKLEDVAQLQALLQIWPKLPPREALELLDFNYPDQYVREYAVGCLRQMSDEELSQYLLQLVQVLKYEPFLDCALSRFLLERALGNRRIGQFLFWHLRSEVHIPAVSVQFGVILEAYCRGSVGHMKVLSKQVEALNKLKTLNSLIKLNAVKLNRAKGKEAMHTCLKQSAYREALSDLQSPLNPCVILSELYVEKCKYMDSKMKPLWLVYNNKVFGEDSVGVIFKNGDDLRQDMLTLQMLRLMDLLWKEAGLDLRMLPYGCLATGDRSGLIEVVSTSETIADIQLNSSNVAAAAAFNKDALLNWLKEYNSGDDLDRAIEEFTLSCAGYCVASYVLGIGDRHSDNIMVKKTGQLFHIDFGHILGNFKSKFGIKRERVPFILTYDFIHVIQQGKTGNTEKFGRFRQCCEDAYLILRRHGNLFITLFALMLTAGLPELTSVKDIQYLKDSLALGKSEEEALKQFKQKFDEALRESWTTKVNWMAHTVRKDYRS

SMILES: O=S(=O)(Nc1cc(-c2ccc3ncccc3c2)cnc1Cl)c1ccc(F)cc1
- Ki [1]: 2.1 nM
- IC50 [2]: 377 nM

SMILES: O=S(=O)(Nc1cc(-c2cc3cccnc3cn2)cnc1Cl)c1ccc(F)cc1
- Ki [1]: 200 nM
- IC50 [2]: > 10000 nM

SMILES: O=S(=O)(Nc1cc(-c2cnc3ncccc3c2)cnc1Cl)c1ccc(F)cc1
- Ki [1]: 856 nM

SMILES: O=S(=O)(Nc1cc(-c2ccc3nnccc3c2)cnc1Cl)c1ccc(F)cc1
- Ki [1]: 38 nM
- IC50 [2]: 1920 nM

SMILES: COCCNc1ccnc2ccc(-c3cnc(Cl)c(NS(=O)(=O)c4ccc(F)cc4)c3)cc12
- Ki [1]: 69 nM
- IC50 [2]: 1020 nM

SMILES: CN(C)c1ccnc2ccc(-c3cnc(Cl)c(NS(=O)(=O)c4ccc(F)cc4)c3)cc12
- Ki [1]: 5.7 nM
- IC50 [2]: 223 nM

SMILES: O=S(=O)(Nc1cc(-c2ccc3nccc(N4CCC(O)CC4)c3c2)cnc1Cl)c1ccc(F)cc1
- Ki [1]: 0.9 nM
- IC50 [2]: 150 nM

SMILES: O=S(=O)(Nc1cc(-c2ccc3nccc(N4CCN(Cc5ccccc5)CC4)c3c2)cnc1Cl)c1ccc(F)cc1
- Ki [1]: 1 nM
- IC50 [2]: 136 nM

SMILES: O=S(=O)(Nc1cc(-c2ccc3nccc(N4CCN(Cc5ccncc5)CC4)c3c2)cnc1Cl)c1ccc(F)cc1
- IC50 [3]: 6.5 nM
- IC50 [4]: 15 nM
- IC50 [5]: 6 nM
- IC50 [1]: 4.6 nM
- Ki [1]: 0.9 nM
- IC50 [2]: 18 nM
- QH (Rattus norvegicus): 0.6%
- microsomal CLint at 0.5 h, 1 µM (in vitro [6]): 247 µL/min/mg
- microsomal CLint at 0.5 h, 1 µM (in vitro [7]): > 399 µL/min/mg

SMILES: O=S(=O)(Nc1cc(-c2ccc3nccc(-c4ccccc4)c3c2)cnc1Cl)c1ccc(F)cc1
- Ki [1]: 1.3 nM
- IC50 [2]: 127 nM

SMILES: O=S(=O)(Nc1cc(-c2ccc3nccc(-c4cccnc4)c3c2)cnc1Cl)c1ccc(F)cc1
- IC50 [3]: 7.7 nM
- bioavailability [8]: 73%
- AUC [9]: 5.63 µg·h/mL
- IC50 [4]: 10 nM
- IC50 [5]: 5.9 nM
- IC50 [10]: 2.9 nM
- QH (Rattus norvegicus): 0.6%
- clearance (in vivo [11]): 0.13 L/h/kg
- Vd (in vivo [12]): 0.81 L/kg
- MRT (in vivo [13]): 6.3 h
- concentration at 3 h (in vivo [14]): 0.21 µg/mL
- concentration at 3 h (in vivo [15]): 0.899 µg/mL
- concentration at 3 h (in vivo [16]): 2.33 µg/mL
- microsomal CLint at 0.5 h, 1 µM (in vitro [6]): < 14 µL/min/mg
- microsomal CLint at 0.5 h, 1 µM (in vitro [7]): 33 µL/min/mg
- inhibition in vivo at 0.3 mg/kg (Mus musculus [17]): 70%
- inhibition in vivo at 1 mg/kg (Mus musculus [18]): 97%
- inhibition in vivo at 3 mg/kg (Mus musculus [19]): 99%

SMILES: O=S(=O)(Nc1cc(-c2ccc3nccc(-c4ccncc4)c3c2)cnc1Cl)c1ccc(F)cc1
- IC50 [3]: 13 nM
- bioavailability [8]: 70%
- AUC [9]: 14.7 µg·h/mL
- IC50 [4]: 15 nM
- IC50 [5]: 6 nM
- IC50 [20]: 0.41 nM
- IC50 [10]: 5.3 nM
- QH (Rattus norvegicus): 0.6%
- clearance (in vivo [11]): 0.04 L/h/kg
- Vd (in vivo [12]): 0.52 L/kg
- MRT (in vivo [13]): 15 h
- concentration at 3 h (in vivo [14]): 0.326 µg/mL
- concentration at 3 h (in vivo [15]): 0.95 µg/mL
- concentration at 3 h (in vivo [16]): 2.47 µg/mL
- microsomal CLint at 0.5 h, 1 µM (in vitro [6]): < 14 µL/min/mg
- microsomal CLint at 0.5 h, 1 µM (in vitro [7]): 20 µL/min/mg
- inhibition in vivo at 0.3 mg/kg (Mus musculus [17]): 89%
- inhibition in vivo at 1 mg/kg (Mus musculus [18]): 98%
- inhibition in vivo at 3 mg/kg (Mus musculus [19]): > 99%

SMILES: CN(C)c1ccc(-c2ccnc3ccc(-c4cnc(Cl)c(NS(=O)(=O)c5ccc(F)cc5)c4)cc23)cc1
- Ki [1]: 0.7 nM
- IC50 [2]: 61 nM

SMILES: O=S(=O)(Nc1cc(-c2ccc3ncc(NCC4CCCNC4)nc3c2)cnc1Cl)c1ccc(F)cc1 (centres undefined)
- Ki [1]: 3.3 nM
- IC50 [2]: 2710 nM

SMILES: O=S(=O)(Nc1cc(-c2ccc3ncc(NCCN4CCOCC4)nc3c2)cnc1Cl)c1ccc(F)cc1
- IC50 [3]: 16 nM
- IC50 [4]: 9.8 nM
- IC50 [5]: 6 nM

SMILES: O=S(=O)(Nc1cc(-c2ccc3ncc(N4CCCCC4)nc3c2)cnc1Cl)c1ccc(F)cc1
- Ki [1]: 0.9 nM
- IC50 [2]: 128 nM

SMILES: O=S(=O)(Nc1cc(-c2ccc3ncc(N4CCC(F)(F)CC4)nc3c2)cnc1Cl)c1ccc(F)cc1
- Ki [1]: 0.6 nM
- IC50 [2]: 189 nM

SMILES: O=S(=O)(Nc1cc(-c2ccc3ncc(N4C[C@H]5CC[C@H](CC5)C4)nc3c2)cnc1Cl)c1ccc(F)cc1
- Ki [1]: 1 nM
- IC50 [2]: 247 nM

SMILES: CC(C)N1CCN(c2cnc3ccc(-c4cnc(Cl)c(NS(=O)(=O)c5ccc(F)cc5)c4)cc3n2)CC1
- IC50 [3]: 13 nM
- bioavailability [8]: 72%
- AUC [9]: 10.8 µg·h/mL
- inhibition in vivo at 0.3 mg/kg (Mus musculus [21]): 50%
- inhibition in vivo at 1 mg/kg (Mus musculus [22]): 86%
- inhibition in vivo at 3 mg/kg (Mus musculus [23]): 95%
- concentration at 4 h [24]: 0.155 µg/mL
- concentration at 4 h [25]: 0.417 µg/mL
- concentration at 4 h [26]: 1.79 µg/mL
- IC50 [5]: 5.6 nM
- IC50 [20]: 37 nM
- Ki [1]: 0.8 nM
- IC50 [2]: 17 nM
- QH (Rattus norvegicus): 0.6%
- clearance (in vivo [11]): 0.08 L/h/kg
- Vd (in vivo [12]): 0.4 L/kg
- MRT (in vivo [13]): 5.4 h
- microsomal CLint at 0.5 h, 1 µM (in vitro [6]): 31 µL/min/mg
- microsomal CLint at 0.5 h, 1 µM (in vitro [7]): 32 µL/min/mg

SMILES: O=S(=O)(Nc1cc(-c2ccc3ncc(N4CCOCC4)nc3c2)cnc1Cl)c1ccc(F)cc1
- IC50 [3]: 2.4 nM
- bioavailability [8]: 88%
- AUC [9]: 29.6 µg·h/mL
- inhibition in vivo at 0.3 mg/kg (Mus musculus [21]): 55%
- inhibition in vivo at 1 mg/kg (Mus musculus [22]): 86%
- inhibition in vivo at 3 mg/kg (Mus musculus [23]): 97%
- concentration at 4 h [24]: 0.448 µg/mL
- concentration at 4 h [25]: 1.73 µg/mL
- concentration at 4 h [26]: 4.47 µg/mL
- IC50 [5]: 4.4 nM
- IC50 [20]: 5 nM
- IC50 [10]: 5 nM
- IC50 [27]: 3.4 nM
- QH (Rattus norvegicus): 0.6%
- clearance (in vivo [11]): 0.02 L/h/kg
- Vd (in vivo [12]): 0.19 L/kg
- MRT (in vivo [13]): 9 h
- microsomal CLint at 0.5 h, 1 µM (in vitro [6]): < 14 µL/min/mg
- microsomal CLint at 0.5 h, 1 µM (in vitro [7]): 16 µL/min/mg
